For experiment [1], the system named is Cabbage Looper (Trichoplusia ni, TRIPNI). As to the kind of experiment: Bioassay on Cabbage Looper (CL), 128-well diet tray assay. To be noted: 168 h, 50 μg/cm^2 on artificial diet, second instar larvae, 25° C., five to seven days, average of eight wells, read-out: CL % Control (or Mortality) rating. In kind it is in vivo. Here is the method:
(§1) Example A: Bioassays on Beet Armyworm (Spodoptera exigua, LAPHEG) (“BAW”) and Cabbage Looper (Trichoplusia ni, TRIPNI) (“CL”)
(§2) Certain molecules disclosed in this document were tested against BAW and CL using procedures described in the following examples. In the reporting of the results, the “BAW & CL Rating Table” was used (See Table Section).
Bioassays on CL were conducted using a 128-well diet tray assay. One to five second instar CL larvae were placed in each well (3 mL) of the diet tray that had been previously filled with 1 mL of artificial diet to which 50 μg/cm^2 of the test molecule (dissolved in 50 μL of 90:10 acetone-water mixture) had been applied (to each of eight wells) and then allowed to dry. Trays were covered with a clear self-adhesive cover, vented to allow gas exchange, and held at 25° C., 14:10 light-dark for five to seven days. Percent mortality was recorded for the larvae in each well; activity in the eight wells was then averaged. The results are indicated in the table entitled “Table ABC: Biological Results” (See Table Section).

Experiment [2] relates to Beet Armyworm (Spodoptera exigua, LAPHEG). Nature of the experiment: Bioassay on Beet Armyworm (BAW), 128-well diet tray assay. To be noted: 168 h, 50 μg/cm^2 on artificial diet, second instar larvae, 25° C., five to seven days, average of eight wells, read-out: BAW % Control (or Mortality) rating. Format: in vivo. Here is the method: as §1, §2
Bioassays on BAW were conducted using a 128-well diet tray assay. One to five second instar BAW larvae were placed in each well (3 mL) of the diet tray that had been previously filled with 1 mL of artificial diet to which 50 μg/cm^2 of the test molecule (dissolved in 50 μL of 90:10 acetone-water mixture) had been applied (to each of eight wells) and then allowed to dry. Trays were covered with a clear self-adhesive cover, vented to allow gas exchange, and held at 25° C., 14:10 light-dark for five to seven days. Percent mortality was recorded for the larvae in each well; activity in the eight wells was then averaged. The results are indicated in the table entitled “Table ABC: Biological Results” (See Table Section).

What is called mortality is the share of the test organisms that died.

With `CCOc1ccc(C)cc1N1C(=O)CS/C1=N\C(=O)Nc1ccc(/C=C/c2ncn(-c3ccc(OC(F)(F)F)cc3)n2)cc1` [F46, 1-((Z)-3-(2-Ethoxy-5-methylphenyl)-4-oxothiazolidin-2-ylidene)-3-(4-((E)-2-(1-(4-(trifluoromethoxy)phenyl)-1H-1,2,4-triazol-3-yl)vinyl)phenyl)urea], the mortality at 50 µg/cm2 in experiment [1] and in experiment [2] was 50 to 100% throughout.
On to `Cc1ccc(Cl)c(N2C(=O)CS/C2=N\C(=O)Nc2ccc(CCc3ncn(-c4ccc(OC(F)(F)F)cc4)n3)cc2)c1` [F6, (Z)-1-(3-(2-Chloro-5-methylphenyl)-4-oxothiazolidin-2-ylidene)-3-(4-(2-(1-(4-(trifluoromethoxy)phenyl)-1H-1,2,4-triazol-3-yl)ethyl)phenyl)urea], for which the mortality at 50 µg/cm2 in experiment [1] and in experiment [2] was 50 to 100% in each case.
On to `COCc1ccc(C)cc1N1C(=O)CS/C1=N\C(=O)Nc1ccc(CCc2ncn(-c3ccc(OC(F)(F)F)cc3)n2)cc1` [F21, (Z)-1-(3-(2-(Methoxymethyl)-5-methylphenyl)-4-oxothiazolidin-2-ylidene)-3-(4-(2-(1-(4-(trifluoromethoxy)phenyl)-1H-1,2,4-triazol-3-yl)ethyl)phenyl)urea], for which the mortality at 50 µg/cm2 in experiment [1] and in experiment [2] was 50 to 100% in each case.
On to `Cc1ccc(C(C)C)c(N2C(=O)CS/C2=N\C(=O)Nc2ccc(CCc3ncn(-c4ccc(OC(F)(F)F)cc4)n3)cc2)c1` [F1, (Z)-1-(3-(2-isopropyl-5-methylphenyl)-4-oxothiazolidin-2-ylidene)-3-(4-(2-(1-(4-(trifluoromethoxy)phenyl)-1H-1,2,4-triazol-3-yl)ethyl)phenyl)urea], for which the mortality at 50 µg/cm2 in experiment [1] and in experiment [2] was 50 to 100% in each case.
Consider `COCc1ccc(C)cc1N1C(=O)CS/C1=N\C(=O)Nc1ccc(/C=C/c2ncn(-c3ccc(OC(F)(F)F)cc3)n2)cc1F` [F59, 1-(2-Fluoro-4-((E)-2-(1-(4-(trifluoromethoxy)phenyl)-1H-1,2,4-triazol-3-yl)vinyl)phenyl)-3-((Z)-3-(2-(methoxymethyl)-5-methylphenyl)-4-oxothiazolidin-2-ylidene)urea], for which the mortality at 50 µg/cm2 in experiment [1] and in experiment [2] was 50 to 100% throughout.
In the case of `Cc1ccc(C2CC2(F)F)c(N2C(=O)CS/C2=N\C(=O)Nc2ccc(/C=C/c3ncn(-c4ccc(OC(F)(F)F)cc4)n3)cc2)c1` (stereo not drawn) [F66, 1-((Z)-3-(2-(2,2-Difluorocyclopropyl)-5-methylphenyl)-4-oxothiazolidin-2-ylidene)-3-(4-((E)-2-(1-(4-(trifluoromethoxy)phenyl)-1H-1,2,4-triazol-3-yl)vinyl)phenyl)urea], the mortality at 50 µg/cm2 in experiment [1] and in experiment [2] was 50 to 100% each time.
As for `Cc1ccc(C(C)C)c(N2C(=O)CS/C2=N\C(=O)Nc2ccc(CCc3ncn(-c4ccc(OC(F)(F)F)cc4)n3)cn2)c1` [F32, (Z)-1-(3-(2-Isopropyl-5-methylphenyl)-4-oxothiazolidin-2-ylidene)-3-(5-(2-(1-(4-(trifluoromethoxy)phenyl)-1H-1,2,4-triazol-3-yl)ethyl)pyridin-2-yl)urea], the mortality at 50 µg/cm2 in experiment [1] and in experiment [2] was 50 to 100% in each case.
For the compound `COc1ccc(C)cc1N1C(=O)CS/C1=N\C(=O)Nc1ccc(/C=C/c2ncn(-c3ccc(OC(F)(F)F)cc3)n2)cc1` [F42, 1-((Z)-3-(2-Methoxy-5-methylphenyl)-4-oxothiazolidin-2-ylidene)-3-(4-((E)-2-(1-(4-(trifluoromethoxy)phenyl)-1H-1,2,4-triazol-3-yl)vinyl)phenyl)urea], the mortality at 50 µg/cm2 in experiment [1] and in experiment [2] was 50 to 100% each time.
Consider `Cc1ccc(OC(C)C)c(N2C(=O)CS/C2=N\C(=O)Nc2ccc(CCc3ncn(-c4ccc(OC(F)(F)F)cc4)n3)cc2)c1` [F11, (Z)-1-(3-(2-Isopropoxy-5-methylphenyl)-4-oxothiazolidin-2-ylidene)-3-(4-(2-(1-(4-(trifluoromethoxy)phenyl)-1H-1,2,4-triazol-3-yl)ethyl)phenyl)urea], for which the mortality at 50 µg/cm2 in experiment [1] and in experiment [2] was 50 to 100% throughout.

Values taken from patent publication US9661854B2, “Molecules having pesticidal utility, and intermediates, compositions, and processes, related thereto” (Dow AgroSciences LLC, priority 2015, dated 2017).
